Source: patent US9163032B2, “Esters of DCPLA and methods of treatment using the same” (Blanchette Rockefeller Neurosciences Institute, priority 2011, dated 2015)
Read-outs that look alike come from different tables or passages of the source.

Assays:
PKC-ε [1] = target: T1, PKC-ε (Homo sapiens, UniProt Q02156); assay: PKC activation assay with purified PKC-ε isozyme (32P-phosphoprotein formation); format: biochemical; conditions: for Emax: % of control of PKCε at maximum; for Specificity ε/α: Activation of PKC-ε ÷ activation or inhibition of PKCα at 3xEC50; for concentration of maximal activation: FIG. 2, FIG. 4; for EC50: lowest concentration that activates by 50% of maximum activation; for PKC-ε activation at its peak: maximum, FIG. 1, 2, 4
T1 sequence (Q02156 1-737): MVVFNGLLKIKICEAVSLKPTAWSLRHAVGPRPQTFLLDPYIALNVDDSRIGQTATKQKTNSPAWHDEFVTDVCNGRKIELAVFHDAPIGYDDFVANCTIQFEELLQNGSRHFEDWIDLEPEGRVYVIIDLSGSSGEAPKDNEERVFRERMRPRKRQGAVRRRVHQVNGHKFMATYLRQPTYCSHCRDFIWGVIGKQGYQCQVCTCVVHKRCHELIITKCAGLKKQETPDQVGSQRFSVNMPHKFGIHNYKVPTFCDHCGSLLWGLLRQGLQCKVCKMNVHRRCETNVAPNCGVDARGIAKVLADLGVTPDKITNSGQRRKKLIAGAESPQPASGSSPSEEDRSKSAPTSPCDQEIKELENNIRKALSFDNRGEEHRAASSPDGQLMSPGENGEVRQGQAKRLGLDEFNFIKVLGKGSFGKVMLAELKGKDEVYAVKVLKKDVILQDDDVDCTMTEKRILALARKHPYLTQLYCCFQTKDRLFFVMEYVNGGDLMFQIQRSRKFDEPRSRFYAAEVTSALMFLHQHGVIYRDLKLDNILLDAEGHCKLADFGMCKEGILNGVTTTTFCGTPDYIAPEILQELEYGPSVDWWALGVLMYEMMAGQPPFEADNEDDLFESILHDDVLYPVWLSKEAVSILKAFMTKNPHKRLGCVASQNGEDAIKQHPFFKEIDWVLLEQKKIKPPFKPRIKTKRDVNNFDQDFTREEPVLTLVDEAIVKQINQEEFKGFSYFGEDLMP
Description: (§1) For measurement of PKC activation by DCPLA-ME, activation of recombinant PKC-α, PKC-ε, and PKC-δ was evaluated. DCPLA-ME induced activation was measured in the absence of diacylglycerol (DAG) and phosphatidylserine (PS) as described earlier. See Nelson, T. J. et al., J. Biol. Chem., 2009, 284: 34514-34521, and Kanno, T. et al., J. Cell Physiol., 2009, 221: 183-188. Individual enzymes were incubated for 15 min at 37° C. in the presence of 10 μM histones, 4.89 mM CaCl2, 10 mM MgCl2, 20 mM HEPES (pH 7.4), 0.8 mM EDTA, 4 mM EGTA, 4% glycerol, 8 μg/ml aprotinin, 8 μg/ml leupeptin, 2 mM benzamidine, and 0.5 μCi of [γ-^32P]ATP. Purified PKC-α, PKC-ε and PKC-δ were preincubated with DCPLA-ME for 5 min at room temperature. [^32P]-Phosphoprotein formation was measured by adsorption onto phosphocellulose.
(§2) To measure PKC, 10 μl of cell homogenate or purified PKC isozyme was incubated for 15 min at 37° C. in the presence of 10 μM histones, 4.89 mM CaCl2, 1.2 μg/μl phosphatidyl-L-serine, 0.18 μg/μl 1,2-dioctanoyl-sn-glycerol, 10 mM MgCl2, 20 mM HEPES (pH 7.4), 0.8 mM EDTA, 4 mM EGTA, 4% glycerol, 8 μg/ml aprotinin, 8 μg/ml leupeptin, and 2 mM benzamidine. [γ32P]ATP (0.5 μCi) was added and 32P-phosphoprotein formation was measured by adsorption onto phosphocellulose as described previously. See Nelson et al., J. Neurochemistry, 1995, 65: 2350-2357.
(§3) PKC activity of each compound was measured in the absence of diacylglycerol and phosphatidyl-L-serine and PKC-δ and PKC-ε were measured in the absence of added EGTA and CaCl2, as described by Kanno et al., J. Lipid Res., 2006, 47: 1146-1156. Low concentrations of Ca^2+ are needed because high Ca^2+ interacts with the PKC phosphatidylserine binding site and prevents activation. […] To determine their PKC isozyme specificity, the compounds were pre-incubated with purified isoforms of PKC for five minutes and the PKC activity was measured radiometrically.
(§4) The activation and PKC isozyme specificity of DCPLA-ethyl ester was measured following the procedures in Example 1(B) and (C), except that 9 ng of the purified isozyme was used and it was pre-incubated for 5 minutes at room temperature (FIG. 3). PKC-ε activation by DCPLA-tert-butyl ester and DCPLA-retinyl ester was measured in the same manner as DCPLA-ethyl ester (FIG. 3).
The EC50 values, PKC specificity, and activation for a select number of DCPLA esters was determined (see Table 1). EC50 values were determined by measuring the lowest concentration that activates by 50% of maximum activation. […] The specificity and activation of PKC by the various esters of DCPLA were determined from the measurements of activation of PKC isozymes.

PKC-α = PKC-α (Homo sapiens, UniProt P17252); assay: PKC activation assay with purified PKC-α isozyme; format: biochemical
Description: as §1
as §2, with “See Nelson et al., J. Neurochemistry, 1995, 65: 2350-2357.” left out
as §3, with “1146-1156.” for “1146-1156. Low concentrations of Ca^2+ are needed because high Ca^2+ interacts with the PKC phosphatidylserine binding site and prevents activation.”
as §4

[2] = system: cultured primary rat hippocampal neurons; assay: Neuroprotection against ASPD induced toxicity, MTT assay, primary neurons; format: cell-based; conditions: added to the cells with DCPLA-ME, 50 nM ASPD
Description: Viability of cells was measured by MTT assay. MTT (i.e., 3-(4,5-dimethylthiazol-2-yl)-2,5-diphenyltetrazolium bromide) is a tetrazolium salt that is cleaved to formazan by the succinate dehydrogenase, which is only active in viable cells. After solubilization of the formazan, the amount of dye can be quantified with a microplate reader at 570 nm along with a reference of 630 nm. For the MTT assay, 5×10^4 primary rat hippocampal neurons from 18-day-old embryonic Sprague-Dawley rat brains or SH-SY5Y cells were plated on each well of 24-well plates coated with poly-D-lysine. After treatment, the cells were washed with 1× PBS and were incubated with 200 μl of 1 mg/ml MTT solution (Sigma, USA) at 37° C. for 2 hr. Then the MTT-solution was removed and the cells were lysed with 200 μl isopropanol containing 0.04 M HCl and […] for 10 min. Finally, the reading was taken at 570 nm and 630 nm. All the samples were done in triplicate and the data were represented as the percentage of control.
Bryostatin 1, DCPLA, and DCPLA-ME were tested against ASPD-induced cytotoxicity to determine their neuroprotective efficacy.

PKC-ε [3] = assay: PKC-ε level in primary neurons (immunofluorescence, Western Blot); format: cell-based, rat; conditions: 5 μM inhibitor, ASPD + DCPLA-ME
Description: Cells were grown in two chambered slides (Nunc, USA) at low density. For immunofluorescence staining, the cells were washed with PBS (pH 7.4) and fixed with 4% paraformaldehyde for 4 min. Following fixation, the cells were blocked and permeabilized with 5% serum and 0.3% Triton X-100 in 1×PBS for 30 min. Cells were washed three times with 1×PBS and incubated with primary antibodies for 1 hr at 1:100 dilution. After the incubation, the slides were again washed three times in 1×PBS and were incubated with the FITC anti-mouse IgG and Rhodamine anti-rabbit IgG for 1 hr at 1:400 dilution. The cells were further washed and stained with DAPI (4′,6-diamidino-2′-phenylindole, dihydrochloride) (Thermo Scientific, USA) to stain the nucleus. Finally, the slides were washed and mounted in Pro Long Gold antifade mounting solution (Invitrogen, USA) and were viewed under a LSM 710 Meta confocal microscope (Zeiss) at 350 nm, 490 nm, and 540 nm excitation and 470 nm, 525 nm, and 625 nm emission for DAPI, FITC, and Rhodamine respectively. Six individual fields at 63× oil lens magnification were analyzed for the mean fluorescence intensity (MFI) in each channel.
Cells were harvested in homogenizing buffer containing 10 mM Tris-Cl (pH 7.4), 1 mM PMSF (phenylmethylsulfonyl fluoride), 1 mM EGTA, 1 mM EDTA, 50 mM NaF, and 20 μM leupeptin, and were lysed by sonication. The homogenate was centrifuged at 100,000×g for 15 min at 4° C. to obtain the cytosolic fraction (supernatant) and membrane (pellet). The pellet was resuspended in the homogenizing buffer by sonication. […] Protein concentration was measured using the Coomassie Plus (Bradford) Protein Assay kit (Pierce, USA). Following quantification, 20 μg of protein from each sample was subjected to SDS-PAGE analysis in a 4-20% gradient Tris-Glycine gel (Invitrogen, USA). […] The blot was imaged in an ImageQuant RT-ECL (GE Life Sciences, Piscataway, N.J.) and densitometric quantification was performed using IMAL software (Blanchette Rockefeller Neurosciences Institute, Morgantown, W. Va.). […]

PKC-δ = PKC-δ (Homo sapiens, UniProt Q05655); assay: PKC activation assay with purified PKC-δ isozyme; format: biochemical
Description: as §1
as §2, with “2350-2357. […]” for “2350-2357.”

Sequence of PKC-δ (Q05655 whole entry): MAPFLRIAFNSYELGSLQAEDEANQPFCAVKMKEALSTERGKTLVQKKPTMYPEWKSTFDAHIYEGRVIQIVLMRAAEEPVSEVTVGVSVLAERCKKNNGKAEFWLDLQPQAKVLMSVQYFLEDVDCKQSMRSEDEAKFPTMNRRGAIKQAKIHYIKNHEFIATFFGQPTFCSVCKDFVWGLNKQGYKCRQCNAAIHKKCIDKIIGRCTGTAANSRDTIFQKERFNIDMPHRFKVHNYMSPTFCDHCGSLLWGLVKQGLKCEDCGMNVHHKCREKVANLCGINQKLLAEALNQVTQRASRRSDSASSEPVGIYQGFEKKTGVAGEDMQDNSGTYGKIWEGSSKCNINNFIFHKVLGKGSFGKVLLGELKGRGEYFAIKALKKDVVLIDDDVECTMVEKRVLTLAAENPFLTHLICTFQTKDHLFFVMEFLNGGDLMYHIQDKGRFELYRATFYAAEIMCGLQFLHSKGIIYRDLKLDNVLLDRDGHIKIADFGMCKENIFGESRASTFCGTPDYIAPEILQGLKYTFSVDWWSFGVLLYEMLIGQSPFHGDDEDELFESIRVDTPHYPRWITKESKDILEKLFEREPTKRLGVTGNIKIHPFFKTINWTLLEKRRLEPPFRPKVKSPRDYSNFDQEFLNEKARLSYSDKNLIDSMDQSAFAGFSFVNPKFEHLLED

Compound: CCCCCC1CC1CC1CC1CCCCCCCC(=O)OC1CC[C@@]2(C)C(=CC[C@H]3[C@H]4CC[C@H]([C@H](C)CCCC(C)C)[C@@]4(C)CC[C@H]32)C1 (some centres unmarked) [DCPLA-cholesteryl ester, DCPLA cholesteryl ester]
- affinity for PKC-ε and PKC-δ (PKC-ε [1]): extremely high affinity
- form of activity vs. concentration response (PKC-ε [1]): biphasic manner
- Emax (PKC-ε [1]): 122%
- Specificity ε/α (PKC-ε [1]): 0.94
- concentration of maximal activation (PKC-ε [1]): 0.01 nM
- potency relative to Bryostatin 1 (PKC-ε [1]; from concentration of maximal activity): 18 ×
- form of activity vs. concentration response (PKC-ε [1]; listed as cholesteryl ester): bimodal activation
- EC50 (PKC-ε [1]): 0.005 nM
- PKC-ε activation at its peak (PKC-ε [1]): up to 130 % of control
- effect on PKC-α (PKC-α): inhibited at all concentrations

Compound: EAVSLKPT
- effect on DCPLA-ME neuroprotection [2]: blocked DCPLA-ME's protective effect
- effect on DCPLA-ME protection of PKC-ε protein level (PKC-ε [3]): completely blocked

Compound: CCCCCC1CC1CC1CC1CCCCCCCC(=O)OC(C)C (centres unmarked) [DCPLA-isopropyl ester]
- Emax (PKC-ε [1]): 140%
- Specificity ε/α (PKC-ε [1]): 1.4
- concentration of maximal activation (PKC-ε [1]): 10 nM
- EC50 (PKC-ε [1]): 0.1 nM
- PKC-ε activation at its peak (PKC-ε [1]): up to 40 % of control
- effect on PKC-δ (PKC-δ): only slightly activated

Compound: CCCCC/C=C\C/C=C\CCCCCCCC(=O)O[C@H]1CC[C@@]2(C)C(=CC[C@H]3[C@@H]4CC[C@H]([C@H](C)CCCC(C)C)[C@@]4(C)CC[C@@H]32)C1 [Cholesteryl linoleate, cholesteryl linoleate, reference compound]
- PKC-ε activation (PKC-ε [1]; FIG. 4): little or no activation
- PKC-α activation (PKC-α; FIG. 4): 20%
